The term EC50 denotes the concentration giving half of the maximal effect.

The test system of the first assay is PBMCs infected with VSV-G pseudotyped HIV virus (VSV-G/pNLG1-P2A-ΔEnv). The assay is described as follows: cells. The following applies: Homo sapiens, PBMC, read-out: EC50 (HIV-TACK cell kill activity). The format is cell-based, human.
Take `O=C1Nc2cc(Cn3cnc(C(F)(F)F)cc3=O)ccc2[C@@](C#CC2CC2)(C(F)(F)F)N1` [Example 25, (S)-4-(cyclopropylethynyl)-7-((6-oxo-4-(trifluoromethyl)pyrimidin-1(6H)-yl)methyl)-4-(trifluoromethyl)-3,4-dihydroquinazolin-2(1H)-one]: the concentration giving a half-maximal response (EC50) amounted to 194 nM.

`Nc1ccnn(Cc2cc3c(cc2F)[C@@](C#CC2CC2)(C(F)(F)F)NC(=O)N3)c1=O` [Example 26, (S)-7-((5-amino-6-oxopyridazin-1(6H)-yl)methyl)-4-(cyclopropylethynyl)-6-fluoro-4-(trifluoromethyl)-3,4-dihydroquinazolin-2(1H)-one]: the concentration giving a half-maximal response (EC50) was 226 nM.

Regarding `N#Cc1cc(=O)n(Cc2ccc3c(c2)NC(=O)N[C@]3(C#CC2CC2)C(F)(F)F)cn1` [Example 27, (S)-1-((4-(cyclopropylethynyl)-2-oxo-4-(trifluoromethyl)-1,2,3,4-tetrahydroquinazolin-7-yl)methyl)-6-oxo-1,6-dihydropyrimidine-4-carbonitrile], the EC50 was determined as 190 nM.

On to `Nc1cc(=O)n(Cc2ccc3c(c2)NC(=O)N[C@]3(C#CC2CC2)C(F)(F)F)cn1` [Example 28, (S)-7-((4-amino-6-oxopyrimidin-1(6H)-yl)methyl)-4-(cyclopropylethynyl)-4-(trifluoromethyl)-3,4-dihydroquinazolin-2(1H)-one], for which the EC50 was 171 nM.

Regarding `O=C1Nc2cc(Cn3nc(Cl)ccc3=O)ccc2[C@@](C#CC2CC2)(C(F)(F)F)N1` [Example 29, (S)-7-((3-chloro-6-oxopyridazin-1(6H)-yl)methyl)-4-(cyclopropylethynyl)-4-(trifluoromethyl)-3,4-dihydroquinazolin-2(1H)-one], the EC50 is 161 nM.

Turning to `Cc1cnc(N)c(=O)n1Cc1ccc2c(c1)NC(=O)N[C@]2(C#CC1CC1)C(F)(F)F` [Example 30, (S)-7-((3-amino-6-methyl-2-oxopyrazin-1(2H)-yl)methyl)-4-(cyclopropylethynyl)-4-(trifluoromethyl)-3,4-dihydroquinazolin-2(1H)-one], the 50% effective concentration (EC50) is 152 nM.

With `COCc1cc(=O)n(Cc2ccc3c(c2)NC(=O)N[C@]3(C#CC2CC2)C(F)(F)F)cn1` [Example 31, (S)-4-(cyclopropylethynyl)-7-((4-(methoxymethyl)-6-oxopyrimidin-1(6H)-yl)methyl)-4-(trifluoromethyl)-3,4-dihydroquinazolin-2(1H)-one], the EC50 was determined as 146 nM.

As for `Nc1c(C(F)(F)F)ncn(Cc2ccc3c(c2)NC(=O)N[C@]3(C#CC2CC2)C(F)(F)F)c1=O` [Example 33, (S)-7-((5-amino-6-oxo-4-(trifluoromethyl)pyrimidin-1(6H)-yl)methyl)-4-(cyclopropylethynyl)-4-(trifluoromethyl)-3,4-dihydroquinazolin-2(1H)-one], the EC50 was 126 nM.

Regarding `Cc1cc(=O)n(Cc2ccc3c(c2)NC(=O)N[C@]3(C#CC2CC2)C(F)(F)F)cn1` [Example 34, (S)-4-(cyclopropylethynyl)-7-((4-methyl-6-oxopyrimidin-1(6H)-yl)methyl)-4-(trifluoromethyl)-3,4-dihydroquinazolin-2(1H)-one], the EC50 worked out at 117 nM.

In the case of `O=C1Nc2cc(Cn3cnc(Cl)cc3=O)ccc2[C@@](C#CC2CC2)(C(F)(F)F)N1` [Example 35, (S)-7-((4-chloro-6-oxopyrimidin-1(6H)-yl)methyl)-4-(cyclopropylethynyl)-4-(trifluoromethyl)-3,4-dihydroquinazolin-2(1H)-one], the EC50 was determined as 101 nM.

On to `O=C1Nc2cc(Cn3cnc(C(F)F)cc3=O)ccc2[C@@](C#CC2CC2)(C(F)(F)F)N1` [Example 36, (S)-4-(cyclopropylethynyl)-7-((4-(difluoromethyl)-6-oxopyrimidin-1(6H)-yl)methyl)-4-(trifluoromethyl)-3,4-dihydroquinazolin-2(1H)-one], for which the EC50 came out at 101 nM.

`Nc1cncn(Cc2ccc3c(c2)NC(=O)N[C@]3(C#CC2CC2)C(F)(F)F)c1=O` [Example 37, (S)-1-((4-(cyclopropylethynyl)-2-oxo-4-(trifluoromethyl)-1,2,3,4-tetrahydroquinazolin-7-yl)methyl)-6-oxo-1,6-dihydropyrimidin-5-aminium 2,2,2-trifluoroacetate]: the concentration for a half-maximal effect (EC50) is 89 nM.

On to `O=C1Nc2cc(Cn3cnc(C(F)(F)F)cc3=O)c(F)cc2[C@@](C#CC2CC2)(C(F)(F)F)N1` [Example 38, (S)-4-(cyclopropylethynyl)-6-fluoro-7-((6-oxo-4-(trifluoromethyl)pyrimidin-1(6H)-yl)methyl)-4-(trifluoromethyl)-3,4-dihydroquinazolin-2(1H)-one], for which the half-maximal effective concentration (EC50) turned out to be 87 nM.

In the case of `Nc1cccn(Cc2cc3c(cc2F)[C@@](C#CC2CC2)(C(F)(F)F)NC(=O)N3)c1=O` [Example 39, (S)-7-((3-amino-2-oxopyridin-1(2H)-yl)methyl)-4-(cyclopropylethynyl)-6-fluoro-4-(trifluoromethyl)-3,4-dihydroquinazolin-2(1H)-one], the concentration for a half-maximal effect (EC50) was 72 nM.

Take `Nc1c(Cl)ncn(Cc2ccc3c(c2)NC(=O)N[C@]3(C#CC2CC2)C(F)(F)F)c1=O` [Example 40, (S)-7-((5-amino-4-chloro-6-oxopyrimidin-1(6H)-yl)methyl)-4-(cyclopropylethynyl)-4-(trifluoromethyl)-3,4-dihydroquinazolin-2(1H)-one]: the concentration for a half-maximal effect (EC50) stood at 65 nM.

With `Nc1cc(=O)n(Cc2cc3c(cc2F)[C@@](C#CC2CC2)(C(F)(F)F)NC(=O)N3)cn1` [Example 41, (S)-7-((4-amino-6-oxopyrimidin-1(6H)-yl)methyl)-4-(cyclopropylethynyl)-6-fluoro-4-(trifluoromethyl)-3,4-dihydroquinazolin-2(1H)-one], the half-maximal effective concentration (EC50) was found to be 60 nM.

With `O=C1Nc2cc(Cn3cnc(C(F)(F)F)cc3=O)c(Cl)cc2[C@@](C#CC2CC2)(C(F)(F)F)N1` [Example 42, (S)-6-chloro-4-(cyclopropylethynyl)-7-((6-oxo-4-(trifluoromethyl)pyrimidin-1(6H)-yl)methyl)-4-(trifluoromethyl)-3,4-dihydroquinazolin-2(1H)-one], the concentration for a half-maximal effect (EC50) turned out to be 52 nM.

On to `Cc1cc(=O)n(Cc2cc3c(cc2F)[C@@](C#CC2CC2)(C(F)(F)F)NC(=O)N3)cn1` [Example 43, (S)-4-(cyclopropylethynyl)-6-fluoro-7-((4-methyl-6-oxopyrimidin-1(6H)-yl)methyl)-4-(trifluoromethyl)-3,4-dihydroquinazolin-2(1H)-one], for which the half-maximal effective concentration (EC50) was 50 nM.

Regarding `O=C1Nc2cc(Cn3cnc(Cl)cc3=O)c(F)cc2[C@@](C#CC2CC2)(C(F)(F)F)N1` [Example 44, (S)-7-((4-chloro-6-oxopyrimidin-1(6H)-yl)methyl)-4-(cyclopropylethynyl)-6-fluoro-4-(trifluoromethyl)-3,4-dihydroquinazolin-2(1H)-one], the EC50 was found to be 47 nM.

For the molecule `Nc1nccn(Cc2cc3c(cc2Br)[C@@](C#CC2CC2)(C(F)(F)F)NC(=O)N3)c1=O` [Example 45, (S)-7-((3-amino-2-oxopyrazin-1(2H)-yl)methyl)-6-bromo-4-(cyclopropylethynyl)-4-(trifluoromethyl)-3,4-dihydroquinazolin-2(1H)-one], the concentration giving a half-maximal response (EC50) was 50 nM.

Regarding `CN1C(=O)Nc2cc(Cn3ccnc(N)c3=O)ccc2[C@@]1(C#CC1CC1)C(F)(F)F` [Example 46, (S)-7-((3-amino-2-oxopyrazin-1(2H)-yl)methyl)-4-(cyclopropylethynyl)-3-methyl-4-(trifluoromethyl)-3,4-dihydroquinazolin-2(1H)-one], the EC50 came out at 101 nM.

Turning to `Cc1cn(Cc2ccc3c(c2)NC(=O)N[C@]3(C#CC2CC2)C(F)(F)F)c(=O)[nH]c1=O` [Example 47, (S)-1-((4-(cyclopropylethynyl)-2-oxo-4-(trifluoromethyl)-1,2,3,4-tetrahydroquinazolin-7-yl)methyl)-5-methylpyrimidine-2,4(1H,3H)-dione], the EC50 was 135 nM.

Regarding `CC(F)(F)[C@@]1(C#CC2CC2)NC(=O)Nc2cc(Cn3cnccc3=O)c(Cl)cc21` [Example 48, (S)-6-chloro-4-(cyclopropylethynyl)-4-(1,1-difluoroethyl)-7-((6-oxopyrimidin-1(6H)-yl)methyl)-3,4-dihydroquinazolin-2(1H)-one], the EC50 came to 12 nM.

On to `O=C1Nc2c(cc(F)c(Cn3cnccc3=O)c2F)[C@@](C#CC2CC2)(C(F)(F)F)N1` [Example 49, (S)-4-(cyclopropylethynyl)-6,8-difluoro-7-((6-oxopyrimidin-1(6H)-yl)methyl)-4-(trifluoromethyl)-3,4-dihydroquinazolin-2(1H)-one], for which the EC50 is 96 nM.

On to `CC(F)(F)[C@@]1(C#CC2CC2)NC(=O)Nc2cc(Cn3ncccc3=O)c(F)cc21` [Example 50, (S)-4-(cyclopropylethynyl)-4-(1,1-difluoroethyl)-6-fluoro-7-((6-oxopyridazin-1(6H)-yl)methyl)-3,4-dihydroquinazolin-2(1H)-one], for which the EC50 was determined as 32 nM.

Regarding `Cc1ccc(=O)n(Cc2cc3c(cc2F)[C@@](C#CC2CC2)(C(C)(F)F)NC(=O)N3)n1` [Example 51, (S)-4-(cyclopropylethynyl)-4-(1,1-difluoroethyl)-6-fluoro-7-((3-methyl-6-oxopyridazin-1(6H)-yl)methyl)-3,4-dihydroquinazolin-2(1H)-one], the concentration for a half-maximal effect (EC50) is 54 nM.

`CC(F)(F)[C@@]1(C#CC2CC2)NC(=O)Nc2cc(Cn3ccnc(N)c3=O)ccc21` [Example 53, (S)-7-((3-amino-2-oxopyrazin-1(2H)-yl)methyl)-4-(cyclopropylethynyl)-4-(1,1-difluoroethyl)-3,4-dihydroquinazolin-2(1H)-one]: the EC50 was found to be 18 nM.

As to `O=C1Nc2cc(Cn3ccc(=O)[nH]c3=O)ccc2[C@@](C#CC2CC2)(C(F)(F)F)N1` [Example 54, (S)-1-((4-(cyclopropylethynyl)-2-oxo-4-(trifluoromethyl)-1,2,3,4-tetrahydroquinazolin-7-yl)methyl)pyrimidine-2,4(1H,3H)-dione], the half-maximal effective concentration (EC50) was determined as 284 nM.

The same assay, now with this note: read-out: EC50 (HIV-TACK cell kill activity); 2,2,2-trifluoroacetate.
On to `Nc1cc(=O)n(Cc2ccc3c(c2)NC(=O)N[C@]3(C#CC2CC2)C(F)(F)F)cn1` [Example 32, (S)-1-((4-(cyclopropylethynyl)-2-oxo-4-(trifluoromethyl)-1,2,3,4-tetrahydroquinazolin-7-yl)methyl)-6-oxo-1,6-dihydropyrimidin-4-aminium 2,2,2-trifluoroacetate], for which the EC50 came to 141 nM.

(Values after US12558357B2, “Tetrahydroquinazoline derivatives as selective cytotoxic agents” (Merck Sharp & Dohme LLC, priority 2020, dated 2026).)
